Ends that are not written are not given here.
Experiments:
[1] = system: complement activation in normal human serum (NHS); assay: Heat-aggregated IgG immune complex-initiated complement activation in normal human serum (C5a, iC3b, SC5b-9 ELISA); type: biochemical
Experimental: Immune complex activation of NHS was performed as follows. NHS was stimulated with three different types of immune complexes (IC) to induce complement activation. Heat-aggregated IgG was generated by incubating intravenous immune globulin at 50 mg/ml at 63° C. for 30 min [26]. Ovalbumin-antiovalbumin immune complexes were made by incubating 0.01 ml anti-ovalbumin antibody with an equal volume of ovalbumin, at 0.25 mg/nil, at 37° C. for 30 minutes and then storing at 4° C. overnight. C1 immune complexes were formed by incubating 0.02 ml anti-C1q goat sera with 5 μl of C1, at 200 μg/ml, at 30° C. for 30 minutes and then placing in an ice water bath. For C5a and C5b-9 assays, activation of NHS was performed by pre-incubating 5% NHS with titrating concentrations of PA-dPEG24 in 0.3 ml of GVBS^++ buffer for 30 minutes at room temperature. Then […] of either heat-aggregated IVIg, or ovalbumin IC, or 5 μI of C1-antiC1q IC was added to the mix for 30 min. at 37° C. This reaction was stopped with the addition of an equal volume of GVBS^−−. For iC3b detection, 1% NHS was used and the rest of the protocol remained the same.
ELISA was performed as follows. Samples were assayed using C5a, iC3b, and SC5b-9 ELISAs. […] Colorimetric detection was performed with TMB, stopped with H2SO4 and read on a BioTek Synergy HT plate reader at 450 nm. […]

[2] = system: human neutrophils; assay: PMA-initiated NET formation by human neutrophils (fluorescence microscopy, PicoGreen free DNA); type: cell-based; conditions: 5 mM PA-dPEG24, PMA + hydrogen peroxide
Experimental: (§1) Neutrophils from the blood of healthy volunteers were purified from heparinized blood by Hypaque-Ficoll step gradient centrifugation, dextran sedimentation, and hypotonic lysis, as previously described.
(§2) A Neutrophil Extracellular Trap assay was performed in a microtiter plate as follows. The formation of NETs was induced by incubating 2.0×10^5 neutrophils in a 96 well tissue culture plates with RPMI media alone, or adding 0.05% of H2O2, or 12 nM PMA, or 8 μg/ml MPO, or PA-dPEG24 at various concentrations. For immune complex sera induced NET formation, activated sera was made by adding 5 μl of ovalbumin-anti-ovalbumin immune complex to 5% NHS in 0.3 ml of GVBS^++. This combination was allowed to incubate for 30 minutes at 37° C., and then 0.05 ml was added to the neutrophils in RPMI. Cells were then incubated for 1.5 hours at 37° C. in 5% CO2 incubator.
NET formation was quantitatively assayed as follows. Free DNA was measured by PicoGreen in the supernatant recovered from the NET microtiter plate well assay. Five hundred units of […] (Fisher) were added to each well to allow for digestion of released extracellular DNA for 10 minutes in 37° C. incubator. […] The fluorescence was then quantified on a BioTek microplate reader at Excitation 485 nm/Emission 528 nm.
NET formation was assayed by fluorescence microscopy. […]

[3] = system: human neutrophils; assay: MPO-initiated NET formation by human neutrophils (fluorescence microscopy, PicoGreen free DNA); type: cell-based; conditions: for reduction in free DNA (PicoGreen): vs MPO with no inhibitor
Experimental: as §1, §2
NET formation was quantitatively assayed as follows. Free DNA was measured by PicoGreen in the supernatant recovered from the NET microtiter plate well assay. Five hundred units of […] (Fisher) were added to each well to allow for digestion of released extracellular DNA for 10 minutes in 37° C. incubator. The preparation was then aliquoted into an adjacent well and mixed 1:1 with prepared PICO green reagent (Fisher). The fluorescence was then quantified on a BioTek microplate reader at Excitation 485 nm/Emission 528 nm.
NET formation was assayed by fluorescence microscopy. Purified human neutrophils were assayed on a glass slide as follows. Cells were combined with RPMI media and the indicated stimuli as mentioned above in a tube and then aliquoted onto a glass slide circled with a hydrophobic slide marker. The slides were incubated for 1.5 hours at 37° C. in a 5% CO2 incubator at 37 degrees for 1.5 hours. Slides were fixed overnight with 4% paraformaldehyde at 4° C.
For all staining, the following conditions were used. Slides were washed in PBS and incubated in blocking solution (2% normal goat serum+2% bovine serum albumin in PBS) for 1 hour at room temperature. Then the slides were incubated with primary antibody at 1:300 in 2% BSA in PBS for 1 hour at room temperature. Slides were washed in PBS 3 times and incubated in fluorescent-labeled secondary antibody at 1:1000 or DAPI (Southern Biotech) at 0.25 pg/ml final in 2% BSA in PBS for 1 hour at room temperature. Slides were then washed 3 times in PBS and were imaged. Cells were visualized using a DP70 Digital Camera (Olympus Center, Valley Forge, PA), mounted on a BX50, Olympus microscope. Staining antibody pairs used were rabbit anti-MPO (Thermo Scientific) and rabbit anti-Histone H3 (Abcam) with the secondary goat anti-rabbit Alexa Fluor 488 (Novus Biologicals). […]

## IALILEPICCQERAA-dPEG24 (cysteine pairing not given here) [PA-dPEG24, 15-amino acid PEGylated peptide, 24 PEG moieties at the C-terminus]
[1]; 1 mM PA-dPEG24, vs heat-aggregated IgG with no inhibitor, P=0.002
  reduction of C5a generation: 61%
[1]; heat-aggregated IgG in NHS, each assay, P<0.05 vs no inhibitor
  PA-dPEG24 concentration giving statistically significant inhibition of effector (C5a, iC3b, SC5b-9) generation: ≥ 0.5 mM
[2]
  NETs identified by fluorescence microscopy: did not generate NETs
[2]; vs no inhibitor, P=0.01
  inhibition of free DNA elaboration (PicoGreen): 2.6 fold
[3]; 1.1 mM PA-dPEG24, P=0.02
  reduction in free DNA (PicoGreen): 30%
[3]; 4.5 mM PA-dPEG24, P=0.001
  reduction in free DNA (PicoGreen): 3.7 fold
[3]; 5 mM PA-dPEG24, MPO + hydrogen peroxide
  NET formation by fluorescence microscopy: blocked
[3]; PA-dPEG24 only, no stimulus
  appearance of neutrophils incubated with PA-dPEG24 alone, fluorescence microscopy: appeared normal
